Results: patent US20230227435A1, “SMALL MOLECULE MODULATORS OF IL-17” (LEO PHARMA A/S, priority 2020, published 2023)

target: T1, human IL-17AA (Homo sapiens, UniProt Q16552); assay: IL-8 release assay in human epithelial keratinocytes adult (HEKa); format: cell-based; settings: HEKa cells; 3 ng/mL HEK-human IL-17AA + 10 ng/mL human TNFalpha; 68-72 hours; IL-8 by HTRF; read-out: Rel EC50 IL-8 release assay
T1 construct: host or cells: HEK (human embryonic kidney) cells
T1 sequence (Q16552 24-155) 1: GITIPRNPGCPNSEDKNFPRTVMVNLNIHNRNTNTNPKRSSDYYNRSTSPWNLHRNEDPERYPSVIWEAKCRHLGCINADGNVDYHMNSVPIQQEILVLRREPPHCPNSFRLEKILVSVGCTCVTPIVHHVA
T1 sequence (Q16552 24-155) 2: T1 sequence (Q16552 24-155) 1
Experimental: Example 8: IL-8 Release Assay in Human Epithelial Keratinocytes Adult (HEKa)
Keratinocytes were seeded at 3500 cells/well in 384-well ViewPlates (Perkin Elmer) in Epilife medium (Thermo Fisher) containing human keratinocyte growth supplement (HKGS) without hydrocortisone and incubated in a humid incubator at 37° C., 5% CO2, overnight. The following day growth medium was removed and 25 μl fresh Epilife medium was added. 75 nL test compound in100% DMSO was added into each well reserved for test compounds, by the use of acoustic pipetting. The remaining wells received an equal volume of DMSO only, as vehicle control, or terfenadine in DMSO, as a positive control for any cytotoxic compounds. Subsequently, another 25 μL Epilife medium was added to each well. Finally, wells containing test compounds and wells prepared to yield maximum stimulation received 25 μL of 9 ng/mL recombinant, human embryonic kidney cell (HEK)-derived human IL-17AA+30 ng/mL human TNF-alpha, in Epilife medium. Wells prepared to define 100% inhibition of IL-17 effects received 25 μL of 30 ng/mL human TNF-alpha alone, in Epilife medium. Final concentrations were 3 ng/mL HEK-human IL-17AA+10 ng/mL human TNFalpha (maximum stimulation) and 10 ng/mL human TNFalpha alone (100% inhibition, Emax), respectively. Cells were incubated for 68-72 hours in the incubator. IL-8 released from the cells was measured by the use of a commercial homogenous time-resolved fluorescence (HTRF) assay (CisBio). 2 μL cell culture supernatant was transferred to a 384-well Proxiplate. 5 μL HTRF reagent was added and the plates were incubated sealed in the dark for 3-22 hours at room temperature. Time-resolved fluorescence was read at 665 vs 620 nm, with excitation at 320 nm, and IL-8 levels were calculated as percent of controls. Reduction of the amount of secreted IL-8 indicates decreased IL-17 signaling. Concentration response curves were fitted by the use of a four-parameter logistic equation. Relative IC50 and Emax were reported from curves showing acceptable fit (r^2>0.9). Cytotoxicity was measured in the cell-containing Viewplates following addition of 7 μL PrestoBlue (Thermo Fisher) and incubation for 2.5-3 hours at room temperature, by measuring fluorescence at 615 nm (excitation at 535 nm). Fluorescence was directly proportional to the amount of metabolic activity. Reduction of fluorescence signal indicated cytotoxicity.
Compounds of the present invention were tested in the IL-8 release assay in human epithelial keratinocytes.

SMILES	EC50 [nM]
Cc1n[nH]c(C)c1-c1ccc(NC(=O)C(c2nnc(-c3ccn(C)c(=O)c3)[nH]2)C(C2CC2)C2CC2)cc1 (stereo not drawn) [Example 22, 3,3-dicyclopropyl-N-[4-(3,5-dimethyl-1H-pyrazol-4-yl)phenyl]-2-[5-(1-methyl-2-oxo-4-pyridyl)-4H-1,2,4-triazol-3-yl]propanamide]	430
Cc1n[nH]c(C)c1-c1ccc(NC(=O)C(c2nnc(-c3ccn[nH]3)[nH]2)C(C2CC2)C2CC2)cc1 (stereo not drawn) [Example 24, 3,3-dicyclopropyl-N-[4-(3,5-dimethyl-1H-pyrazol-4-yl)phenyl]-2-[5-(1H-pyrazol-5-yl)-4H-1,2,4-triazol-3-yl]propanamide]	690
Cc1nn(C)cc1-c1nnc(C(C(=O)Nc2ccc(-c3c(C)n[nH]c3C)cc2)C(C2CC2)C2CC2)[nH]1 (stereo not drawn) [Example 25, 3,3-dicyclopropyl-N-[4-(3,5-dimethyl-1H-pyrazol-4-yl)phenyl]-2-[5-(1,3-dimethylpyrazol-4-yl)-4H-1,2,4-triazol-3-yl]propanamide]	230
Cc1n[nH]c(C)c1-c1ccc(NC(=O)C(c2nnc(-c3c(C)n[nH]c3C)[nH]2)C(C2CC2)C2CC2)cc1 (stereo not drawn) [Example 29, 3,3-dicyclopropyl-N-[4-(3,5-dimethyl-1H-pyrazol-4-yl)phenyl]-2-[5-(3,5-dimethyl-1H-pyrazol-4-yl)-4H-1,2,4-triazol-3-yl]propanamide]	1400
Cc1n[nH]c(C)c1-c1ccc(NC(=O)C(c2nnc(-c3ccncc3)[nH]2)C(C2CC2)C2CC2)cc1 (stereo not drawn) [Example 33, 3,3-dicyclopropyl-N-[4-(3,5-dimethyl-1H-pyrazol-4-yl)phenyl]-2-[5-(4-pyridyl)-4H-1,2,4-triazol-3-yl]propanamide]	480
COc1cc(-c2nnc(C(C(=O)Nc3ccc(-c4c(C)n[nH]c4C)cc3)C(C3CC3)C3CC3)[nH]2)ccn1 (stereo not drawn) [Example 35, 3,3-dicyclopropyl-N-[4-(3,5-dimethyl-1H-pyrazol-4-yl)phenyl]-2-[5-(2-methoxy-4-pyridyl)-4H-1,2,4-triazol-3-yl]propanamide]	160
Cc1ccc(-c2nnc(C(C(=O)Nc3ccc(-c4c(C)n[nH]c4C)cc3)C(C3CC3)C3CC3)[nH]2)cn1 (stereo not drawn) [Example 36, 3,3-dicyclopropyl-N-[4-(3,5-dimethyl-1H-pyrazol-4-yl)phenyl]-2-[5-(6-methyl-3-pyridyl)-4H-1,2,4-triazol-3-yl]propanamide]	440
Cc1n[nH]c(C)c1-c1ccc(NC(=O)C(c2nnc(-c3cnn(C)c3C)[nH]2)C(C2CC2)C2CC2)cc1 (stereo not drawn) [Example 38, 3,3-dicyclopropyl-N-[4-(3,5-dimethyl-1H-pyrazol-4-yl)phenyl]-2-[5-(1,5-dimethylpyrazol-4-yl)-4H-1,2,4-triazol-3-yl]propanamide]	360
Cc1n[nH]c(C)c1-c1ccc(NC(=O)C(c2nnc(-c3ccnn3C(C)C)[nH]2)C(C2CC2)C2CC2)cc1 (stereo not drawn) [Example 43, 3,3-dicyclopropyl-N-[4-(3,5-dimethyl-1H-pyrazol-4-yl)phenyl]-2-[5-(2-isopropylpyrazol-3-yl)-4H-1,2,4-triazol-3-yl]propanamide]	66
Cc1n[nH]c(C)c1-c1ccc(NC(=O)C(c2nnc(-c3ccnn3C3CC3)[nH]2)C(C2CC2)C2CC2)cc1 (stereo not drawn) [Example 44, 3,3-dicyclopropyl-2-[5-(2-cyclopropylpyrazol-3-yl)-4H-1,2,4-triazol-3-yl]-N-[4-(3,5-dimethyl-1H-pyrazol-4-yl)phenyl]propanamide]	77

Continued, values first:

EC50 [nM]	SMILES
59	CCn1nccc1-c1nnc(C(C(=O)Nc2ccc(-c3c(C)n[nH]c3C)cc2)C(C2CC2)C2CC2)[nH]1 (stereo not drawn) [Example 23, 3,3-dicyclopropyl-N-[4-(3,5-dimethyl-1H-pyrazol-4-yl)phenyl]-2-[5-(2-ethylpyrazol-3-yl)-4H-1,2,4-triazol-3-yl]propanamide]
24	Cc1n[nH]c(C)c1-c1ccc(NC(=O)C(c2nnc(-c3ccnn3CC(F)(F)F)[nH]2)C(C2CC2)C2CC2)cc1 (stereo not drawn) [Example 26, 3,3-dicyclopropyl-N-[4-(3,5-dimethyl-1H-pyrazol-4-yl)phenyl]-2-[5-[2-(2,2,2-trifluoroethyl)pyrazol-3-yl]-4H-1,2,4-triazol-3-yl]propanamide]
32	Cc1n[nH]c(C)c1-c1ccc(NC(=O)C(c2nnc(-c3ccnn3C3CCC3)[nH]2)C(C2CC2)C2CC2)cc1 (stereo not drawn) [Example 27, 2-[5-(2-cyclobutylpyrazol-3-yl)-4H-1,2,4-triazol-3-yl]-3,3-dicyclopropyl-N-[4-(3,5-dimethyl-1H-pyrazol-4-yl)phenyl]propanamide]
140	Cc1cc(-c2nnc(C(C(=O)Nc3ccc(-c4c(C)n[nH]c4C)cc3)C(C3CC3)C3CC3)[nH]2)ccn1 (stereo not drawn) [Example 28, 3,3-dicyclopropyl-N-[4-(3,5-dimethyl-1H-pyrazol-4-yl)phenyl]-2-[5-(2-methyl-4-pyridyl)-4H-1,2,4-triazol-3-yl]propanamide]
270	Cc1n[nH]c(C)c1-c1ccc(NC(=O)C(c2nnc(-c3cnn(C(C)C)c3)[nH]2)C(C2CC2)C2CC2)cc1 (stereo not drawn) [Example 30, 3,3-dicyclopropyl-N-[4-(3,5-dimethyl-1H-pyrazol-4-yl)phenyl]-2-[5-(1-isopropylpyrazol-4-yl)-4H-1,2,4-triazol-3-yl]propanamide]
430	Cc1n[nH]c(C)c1-c1ccc(NC(=O)C(c2nnc(-c3cccnc3)[nH]2)C(C2CC2)C2CC2)cc1 (stereo not drawn) [Example 31, 3,3-dicyclopropyl-N-[4-(3,5-dimethyl-1H-pyrazol-4-yl)phenyl]-2-[5-(3-pyridyl)-4H-1,2,4-triazol-3-yl]propanamide]
910	Cc1n[nH]c(C)c1-c1ccc(NC(=O)C(c2nnc(-c3c(C)noc3C)[nH]2)C(C2CC2)C2CC2)cc1 (stereo not drawn) [Example 32, 3,3-dicyclopropyl-2-[5-(3,5-dimethylisoxazol-4-yl)-4H-1,2,4-triazol-3-yl]-N-[4-(3,5-dimethyl-1H-pyrazol-4-yl)phenyl]propanamide]
430	COc1ccc(-c2nnc(C(C(=O)Nc3ccc(-c4c(C)n[nH]c4C)cc3)C(C3CC3)C3CC3)[nH]2)cn1 (stereo not drawn) [Example 34, 3,3-dicyclopropyl-N-[4-(3,5-dimethyl-1H-pyrazol-4-yl)phenyl]-2-[5-(6-methoxy-3-pyridyl)-4H-1,2,4-triazol-3-yl]propanamide]
380	Cc1cnn(C)c1-c1nnc(C(C(=O)Nc2ccc(-c3c(C)n[nH]c3C)cc2)C(C2CC2)C2CC2)[nH]1 (stereo not drawn) [Example 37, 3,3-dicyclopropyl-N-[4-(3,5-dimethyl-1H-pyrazol-4-yl)phenyl]-2-[5-(2,4-dimethylpyrazol-3-yl)-4H-1,2,4-triazol-3-yl]propanamide]
500	Cc1n[nH]cc1-c1nnc(C(C(=O)Nc2ccc(-c3c(C)n[nH]c3C)cc2)C(C2CC2)C2CC2)[nH]1 (stereo not drawn) [Example 39, 3,3-dicyclopropyl-N-[4-(3,5-dimethyl-1H-pyrazol-4-yl)phenyl]-2-[5-(3-methyl-1H-pyrazol-4-yl)-4H-1,2,4-triazol-3-yl]propanamide]
860	Cc1n[nH]c(C)c1-c1ccc(NC(=O)C(c2nnc(-c3cnnn3C)[nH]2)C(C2CC2)C2CC2)cc1 (stereo not drawn) [Example 40, 3,3-dicyclopropyl-N-[4-(3,5-dimethyl-1H-pyrazol-4-yl)phenyl]-2-[5-(3-methyltriazol-4-yl)-4H-1,2,4-triazol-3-yl]propanamide]
> 3250	Cc1n[nH]c(C)c1-c1ccc(NC(=O)C(c2nnc(-c3cnoc3C)[nH]2)C(C2CC2)C2CC2)cc1 (stereo not drawn) [Example 41, 3,3-dicyclopropyl-N-[4-(3,5-dimethyl-1H-pyrazol-4-yl)phenyl]-2-[5-(5-methylisoxazol-4-yl)-4H-1,2,4-triazol-3-yl]propanamide]
470	Cc1nocc1-c1nnc(C(C(=O)Nc2ccc(-c3c(C)n[nH]c3C)cc2)C(C2CC2)C2CC2)[nH]1 (stereo not drawn) [Example 42, 3,3-dicyclopropyl-N-[4-(3,5-dimethyl-1H-pyrazol-4-yl)phenyl]-2-[5-(3-methylisoxazol-4-yl)-4H-1,2,4-triazol-3-yl]propanamide]
22	Cc1n[nH]c(C)c1-c1ccc(NC(=O)C(c2nnc(-c3ccnn3CC3CC3)[nH]2)C(C2CC2)C2CC2)cc1 (stereo not drawn) [Example 45, 3,3-dicyclopropyl-2-[5-[2-(cyclopropylmethyl)pyrazol-3-yl]-4H-1,2,4-triazol-3-yl]-N-[4-(3,5-dimethyl-1H-pyrazol-4-yl)phenyl]propanamide]
